# Read-outs that look alike come from different tables or passages of the source.
# Key:
# A549 cells = test: Phospholipidosis imaging (NBD-PE fluorescence); settings: 24 h, sangivamycin up to 5 μM, melperone 10 μM, amiodarone positive control
# SARS-CoV-2 WA1 [1] = test: microbe, parasite or virus in culture; type: cell-based; settings: for IC50: read-out: IC50
# [2] = test system: COVID-19 higher risk individuals; design: method as in earlier work; settings: phase III clinical trial with 1433 patients, FDA advisory committee analysis; cited from earlier work
# [3] = test system: SARS-CoV-2 B.1.351 (Beta); test: microbe, parasite or virus in culture; type: cell-based; settings: Severe acute respiratory syndrome coronavirus 2, Vero C1008, 18 h
# SARS-CoV-2 P.1 (Gamma) [4] = test: microbe, parasite or virus in culture; type: cell-based; settings: Severe acute respiratory syndrome coronavirus 2, Calu-3, 24 h
# [5] = test system: SARS-CoV-2 B.1.427 (Epsilon); test: microbe, parasite or virus in culture; type: cell-based; settings: Severe acute respiratory syndrome coronavirus 2, Calu-3, 24 h
# SARS-CoV-2 P.1 (Gamma) [6] = test: microbe, parasite or virus in culture; type: cell-based; settings: Severe acute respiratory syndrome coronavirus 2, Vero C1008, 24 h
# [7] = test system: SARS-CoV-2 B.1.617.2 (Delta); test: microbe, parasite or virus in culture; type: cell-based; settings: Severe acute respiratory syndrome coronavirus 2, Calu-3, 24 h
# [8] = test system: SARS-CoV-2 B.1.617.2 (Delta); test: microbe, parasite or virus in culture; type: cell-based; settings: Severe acute respiratory syndrome coronavirus 2, VeroE6/TMPRSS2, 18 h
# SARS-CoV-2 [9] = test: Combinatorial sangivamycin/remdesivir efficacy testing, Vero E6 cells; type: cell-based; settings: Severe acute respiratory syndrome coronavirus 2, Vero C1008; read-out: IC50 (nM), S:R by [Remdesivir]
# [10] = test system: SARS-CoV-2 B.1.1.7 (Alpha); test: microbe, parasite or virus in culture; type: cell-based; settings: Severe acute respiratory syndrome coronavirus 2, Vero C1008, 24 h
# [11] = test system: SARS-CoV-2 B.1.429 (Epsilon); test: microbe, parasite or virus in culture; type: cell-based; settings: Severe acute respiratory syndrome coronavirus 2, Calu-3, 24 h
# [12] = test system: SARS-CoV-2 B.1.351 (Beta); test: microbe, parasite or virus in culture; type: cell-based; settings: Severe acute respiratory syndrome coronavirus 2, Calu-3, 48 h
# SARS-CoV-2 P.2 (Zeta) [13] = test: microbe, parasite or virus in culture; type: cell-based; settings: Severe acute respiratory syndrome coronavirus 2, Vero C1008, 24 h
# [14] = mice; cited from earlier work
# [15] = laboratory mouse liver, lung, and kidney microsomes; cited from earlier work
# [16] = test system: SARS-CoV-2 B.1.429 (Epsilon); test: microbe, parasite or virus in culture; type: cell-based; settings: Severe acute respiratory syndrome coronavirus 2, Vero C1008, 48 h
# SARS-CoV-2 P.2 (Zeta) [17] = test: microbe, parasite or virus in culture; type: cell-based; settings: Severe acute respiratory syndrome coronavirus 2, Calu-3, 24 h
# SARS-CoV-2 [18] = test: Combinatorial sangivamycin/remdesivir efficacy testing, Caco-2 cells; type: cell-based; settings: Severe acute respiratory syndrome coronavirus 2, Caco-2; read-out: IC50 (nM), S:R by [Remdesivir]
# SARS-CoV-2 WA1 [19] = test: microbe, parasite or virus in culture; type: cell-based; settings: Severe acute respiratory syndrome coronavirus 2, Calu-3, 72 h
# SARS-CoV-2 WA1 [20] = test: microbe, parasite or virus in culture; type: cell-based; settings: Severe acute respiratory syndrome coronavirus 2, Caco-2, 96 h
# [21] = test system: SARS-CoV-2 B.1.427 (Epsilon); test: microbe, parasite or virus in culture; type: cell-based; settings: Severe acute respiratory syndrome coronavirus 2, Vero C1008, 24 h
# SARS-CoV-2 [22] = test: Combinatorial sangivamycin/remdesivir efficacy testing, Calu-3 cells; type: cell-based; settings: Severe acute respiratory syndrome coronavirus 2, Calu-3; read-out: IC50 (nM), S:R by [Remdesivir]
# [23] = test system: SARS-CoV-2 B.1.1.7 (Alpha); test: microbe, parasite or virus in culture; type: cell-based; settings: Severe acute respiratory syndrome coronavirus 2, Calu-3, 24 h
# [24] = 24-hour plasma pharmacokinetics in CD-1 laboratory mice; type: in vivo, mouse; settings: CD-1 mice, sangivamycin i.p. 60 mg/kg; not in control mice
# Description: We next evaluated the 24-hour pharmacokinetics (PK) of sangivamycin in CD-1 laboratory mouse plasma. Sangivamycin’s plasma concentrations increased following i.p. injection of 60 mg/kg to a peak at 2 hours, then decreased over 6 or 8 hours, and remained virtually unchanged up to 24 hours after dosing. […] Graphing plasma concentration versus time produced an area under the curve to the last time point with values of 632 ± 66.6 h•ng/mL for males and 833 ± 53.9 h•ng/mL for females. […] Our data corroborate historical PK studies in mice with ^3H-labeled sangivamycin performed at the NCI in 1974 ([20]). In these studies, free nucleoside and mono-, di-, and triphosphate forms of sangivamycin were detected in blood, urine, and multiple tissues (e.g., heart, liver, brain, spleen, and kidneys) following i.p. injection of 8 mg/kg. The studies established that sangivamycin was phosphorylated after transportation into cells. In liver, heart, and brain, the predominant form of sangivamycin was sangivamycin 5′-monophosphate (SMP). […] Therefore, we determined the level of SMP in blood in our PK study using a published liquid chromatography–tandem mass spectrometry (LC-MS/MS) method with a lower limit of quantification of 1 ng/mL ([33]). Using this method, we detected SMP in the plasma of dosed mice but not control mice (Supplemental Figure 9B). The apparent levels of SMP increased in blood during the 24 hours of this study. There also was possible presence of a diphosphate metabolite of sangivamycin, but it was detected only in the plasma samples taken 24 hours after dosing.
# [25] = Severe acute respiratory syndrome coronavirus 2, Vero C1008, 48 h
smiles,measurement,setting,value
"CCCCc1oc2ccccc2c1C(=O)c1cc(I)c(OCCN(CC)CC)c(I)c1 [Amiodarone, reference compound]",NBD-PE fluorescence (phospholipidosis),A549 cells,induced NBD-PE fluorescence
"N#C[C@@]1(c2ccc3c(N)ncnn23)O[C@H](CO)[C@@H](O)[C@H]1O [GS-441524, reference compound]",IC50 fold higher than the IC50 of sangivamycin,SARS-CoV-2 WA1 [1],27 fold
same,IC50,"SARS-CoV-2 WA1 [1]; Severe acute respiratory syndrome coronavirus 2, Vero C1008",1.42 ± 0.02 µM
CC(C)C(=O)OC[C@H]1O[C@@H](n2ccc(NO)nc2=O)[C@H](O)[C@@H]1O [Molnupiravir],reduction of risk for hospitalization and death,[2],30%
"CCC(CC)COC(=O)[C@H](C)N[P@](=O)(OC[C@H]1O[C@@](C#N)(c2ccc3c(N)ncnn23)[C@H](O)[C@@H]1O)Oc1ccccc1 [Remdesivir, remdesivir, reference compound]",IC50,[3],2.37 µM
same,IC90,[3],4.03 µM
same,IC50,SARS-CoV-2 P.1 (Gamma) [4],1.71 µM
same,IC90,SARS-CoV-2 P.1 (Gamma) [4],6.27 µM
same,IC90,SARS-CoV-2 WA1 [1]; [25],3.53 µM
same,IC50,SARS-CoV-2 WA1 [1]; [25],2.27 µM
same,IC50,[5],1.5 µM
same,IC90,[5],6.09 µM
same,IC50,SARS-CoV-2 P.1 (Gamma) [6],0.702 µM
same,IC90,SARS-CoV-2 P.1 (Gamma) [6],3.68 µM
same,IC50,[7],2.91 µM
same,IC90,[7],> 10 µM
same,IC50,[8],5.46 µM
same,IC90,[8],> 10 µM
same,IC50,SARS-CoV-2 [9],2320 nM
same,IC50,[10],1.42 µM
same,IC90,[10],3.68 µM
same,IC50,[11],2.8 µM
same,IC90,[11],> 10 µM
same,IC50,[12],0.951 µM
same,IC90,[12],2.29 µM
same,IC50,SARS-CoV-2 P.2 (Zeta) [13],1.56 µM
same,IC90,SARS-CoV-2 P.2 (Zeta) [13],4.91 µM
same,half-lives (free nucleoside and monophosphate forms),[14],about 5 hours
same,time within which remdesivir and its monophosphate are lost,[15],≤ 10 min
same,IC50,[16],1.77 µM
same,IC90,[16],2.47 µM
same,IC50,SARS-CoV-2 P.2 (Zeta) [17],0.791 µM
same,IC90,SARS-CoV-2 P.2 (Zeta) [17],4.8 µM
same,IC50,SARS-CoV-2 [18],17.6 nM
same,IC50,SARS-CoV-2 WA1 [19],4.49 µM
same,IC90,SARS-CoV-2 WA1 [19],8.19 µM
same,IC50,SARS-CoV-2 WA1 [20],0.003 µM
same,IC90,SARS-CoV-2 WA1 [20],0.013 µM
same,IC50,[21],1.27 µM
same,IC90,[21],3.28 µM
same,IC50,SARS-CoV-2 [22],4470 nM
same,IC50,[23],3.18 µM
same,IC90,[23],> 10 µM
"NC(=O)c1cn(C2OC(COP(=O)(O)O)C(O)C2O)c2ncnc(N)c12 (centres unmarked) [SMP, sangivamycin 5′-monophosphate]",presence in plasma of sangivamycin-dosed mice (LC-MS/MS),[24],detected

# Source: PMC8765048 (JCI Insight, 2022)
